Consider 17 compounds from PubChem BioAssay AID248 (DTP/NCI, 2004).

Toxic doses and inconclusive results are not listed.

The assay relates to L1210 leukemia ip in BDF1 mice, survival T/C. In words: NCI In Vivo Anticancer Drug Screen. Data for tumor model L1210 Leukemia (intraperitoneal) in B6D2F1 (BDF1) mice. Conditions: endpoint: mean survival time, higher = longer survival. The gist of the method:
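Survival endpoint. Drug-treated group vs vehicle group, expressed as T divided by C. Tumor passaged by transplantation.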

[1] abbreviates: dose: 100.0 mg/kg/injection, schedule: Q01DX009 (ip), vehicle: Klucel (hydroxypropylcellulose) (HPC).
Where [2] appears, read: dose: 200.0 mg/kg/injection, schedule: Q01DX009 (ip), vehicle: Klucel (hydroxypropylcellulose) (HPC).
[3] abbreviates: dose: 400.0 mg/kg/injection, schedule: Q01DX009 (ip), vehicle: Klucel (hydroxypropylcellulose) (HPC).
Setting [4] is: dose: 100.0 mg/kg/injection, schedule: Q04DX003 (ip), vehicle: saline with Tween-80.
Where [5] appears, read: dose: 200.0 mg/kg/injection, schedule: Q04DX003 (ip), vehicle: saline with Tween-80.
Where [6] appears, read: dose: 400.0 mg/kg/injection, schedule: Q04DX003 (ip), vehicle: saline with Tween-80.
[7] abbreviates: dose: 75.0 mg/kg/injection, schedule: Q01DX001 (ip), vehicle: saline.
[8] abbreviates: dose: 100.0 mg/kg/injection, schedule: Q04DX003 (ip), vehicle: Klucel (hydroxypropylcellulose) (HPC).
Setting [9] is: dose: 200.0 mg/kg/injection, schedule: Q04DX003 (ip), vehicle: Klucel (hydroxypropylcellulose) (HPC).

Turning to `CC(=O)c1cccc(NC(=O)CCCCCCCCC(=O)Nc2cccc(C(C)=O)c2)c1`, the T/C reads like this: under setting [1], 96 % of control; under setting [2], 91 % of control; under setting [3], 94 % of control.

Consider `BrCCCC[P+](c1ccccc1)(c1ccccc1)c1ccccc1`, for which the T/C reads like this: (dose: 12.5 mg/kg/injection, schedule: Q04DX003 (ip), vehicle: Klucel (hydroxypropylcellulose) (HPC)) 95 % of control; (dose: 25.0 mg/kg/injection, schedule: Q04DX003 (ip), vehicle: Klucel (hydroxypropylcellulose) (HPC)) 106 % of control; (dose: 50.0 mg/kg/injection, schedule: Q01DX001 (ip), vehicle: saline) 107 % of control; (dose: 50.0 mg/kg/injection, schedule: Q04DX003 (ip), vehicle: Klucel (hydroxypropylcellulose) (HPC)) 98 % of control; (dose: 100.0 mg/kg/injection, schedule: Q01DX001 (ip), vehicle: saline) 110 % of control.

For the compound `C[C@]12CC[C@@H]3c4ccc(OC5CCCCO5)cc4CC[C@H]3[C@@H]1CC[C@@H]2O` (some centres undefined), the T/C reads like this: (dose: 146.0 mg/kg/injection, schedule: Q01DX Z (ip), vehicle: steriod suspending solution) 96 % of control; (dose: 220.0 mg/kg/injection, schedule: Q01DX Z (ip), vehicle: steriod suspending solution) 94 % of control; (dose: 330.0 mg/kg/injection, schedule: Q01DX Z (ip), vehicle: steriod suspending solution) 98 % of control; (dose: 500.0 mg/kg/injection, schedule: Q01DX001 (sc), vehicle: steriod suspending solution) 102 % of control; (dose: 500.0 mg/kg/injection, schedule: Q01DX Z (ip), vehicle: steriod suspending solution) 90 % of control; (dose: 600.0 mg/kg/injection, schedule: Q01DX001 (sc), vehicle: steriod suspending solution) 100 % of control. The T/C runs as follows: (dose: 700.0 mg/kg/injection, schedule: Q01DX001 (sc), vehicle: steriod suspending solution) 96 % of control; (dose: 800.0 mg/kg/injection, schedule: Q01DX001 (sc), vehicle: steriod suspending solution) 102 % of control.

On to `O=C(Nc1cccc(C(=O)O)c1)Nc1cccc(C(F)(F)F)c1`, for which the T/C runs as follows: under setting [1], 86 % of control; under setting [2], 86 % of control.

Turning to `Cc1ccc(NC(=S)NNC(=S)NNc2ccccc2)cc1C`, the T/C was 90 % of control under setting [1]; 89 % of control under setting [4]; 102 % of control under setting [2]; 93 % of control under setting [5]; 103 % of control under setting [3]; 91 % of control under setting [6].

For `CCCCC(=O)NC(O)C(Cl)(Cl)C(C)Cl` (centres undefined), the T/C was 112 % of control (dose: 50.0 mg/kg/injection, schedule: Q01DX001 (ip), vehicle: other); 91 % of control (dose: 100.0 mg/kg/injection, schedule: Q01DX001 (ip), vehicle: other); 101 % of control (dose: 200.0 mg/kg/injection, schedule: Q01DX001 (ip), vehicle: other); 101 % of control (dose: 400.0 mg/kg/injection, schedule: Q01DX001 (ip), vehicle: other).

On to `c1cc2ccc1CCc1ccc(cc1)CC2`, for which the T/C was 100 % of control (dose: 100.0 mg/kg/injection, schedule: Q01DX001 (ip), vehicle: saline with Tween-80); 94 % of control (dose: 100.0 mg/kg/injection, schedule: Q01DX009 (ip), vehicle: saline sonified); 102 % of control (dose: 200.0 mg/kg/injection, schedule: Q01DX001 (ip), vehicle: saline with Tween-80); 99 % of control (dose: 200.0 mg/kg/injection, schedule: Q01DX009 (ip), vehicle: saline sonified); 98 % of control (dose: 400.0 mg/kg/injection, schedule: Q01DX001 (ip), vehicle: saline with Tween-80); 93 % of control (dose: 400.0 mg/kg/injection, schedule: Q01DX009 (ip), vehicle: saline sonified).

For the compound `Cc1ccc(S(=O)(=O)Nc2ccc3ncsc3c2[N+](=O)[O-])cc1`, the T/C was 108 % of control (dose: 100.0 mg/kg/injection, schedule: Q01DX009 (ip), vehicle: saline with Tween-80); 97 % of control under setting [4]; 93 % of control (dose: 200.0 mg/kg/injection, schedule: Q01DX009 (ip), vehicle: saline with Tween-80); 102 % of control under setting [5]; 103 % of control (dose: 400.0 mg/kg/injection, schedule: Q01DX009 (ip), vehicle: saline with Tween-80); 102 % of control under setting [6].

Take `Nc1ccn(C2OC(COP(=O)(O)Oc3ccccc3)C(O)C2O)c(=O)n1` (centres undefined): the T/C was 109 % of control under setting [7] and 113 % of control (dose: 150.0 mg/kg/injection, schedule: Q01DX001 (ip), vehicle: saline).

Turning to `CN1CC(N(C)C)CCC/C=C\C1=O` (centres undefined), the T/C under setting [7] is 102 % of control.

In the case of `O=[N+]([O-])c1ccc(Cl)c(OCCCCOc2ccc(S(=O)(=O)F)cc2)c1`, the T/C was 90 % of control under setting [8] and 94 % of control under setting [9].

As to `CCCCCNC(C)C(=O)c1ccccc1` (centres undefined), the T/C is 87 % of control (dose: 12.5 mg/kg/injection, schedule: Q04DX003 (ip), vehicle: saline); 92 % of control (dose: 25.0 mg/kg/injection, schedule: Q01DX009 (ip), vehicle: saline); 94 % of control (dose: 25.0 mg/kg/injection, schedule: Q04DX003 (ip), vehicle: saline); 100 % of control (dose: 50.0 mg/kg/injection, schedule: Q01DX009 (ip), vehicle: saline); 94 % of control (dose: 50.0 mg/kg/injection, schedule: Q04DX003 (ip), vehicle: saline); 97 % of control (dose: 100.0 mg/kg/injection, schedule: Q04DX003 (ip), vehicle: saline).

For the compound `Cc1ccc(S(=O)(=O)N(C)CCC#N)cc1`, the T/C under setting [1] is 97 % of control; the T/C under setting [8] is 100 % of control; the T/C under setting [2] is 96 % of control; the T/C under setting [9] was 98 % of control; the T/C under setting [3] was 96 % of control; the T/C (dose: 400.0 mg/kg/injection, schedule: Q04DX003 (ip), vehicle: Klucel (hydroxypropylcellulose) (HPC)) is 96 % of control.

As to `CN1CCCC1c1ccc(Br)cc1` (centres undefined), the T/C (dose: 100.0 mg/kg/injection, schedule: Q01DX001 (ip), vehicle: acetone) is 95 % of control.

Take `CC12CCC(=O)C=C1CCC1C2CCC2(C)C1CCC2[N+](C)(C)C` (centres undefined): the T/C (dose: 75.0 mg/kg/injection, schedule: Q01DX001 (ip), vehicle: other) is 108 % of control.

Take `CNc1nc(Nc2ccc(C3=NCCN3)cc2)nc(Nc2ccc(C3=NCCN3)cc2)n1`: the T/C by setting is: (dose: 1.25 mg/kg/injection, schedule: Q01DX015 (ip), vehicle: water) 96 % of control; (dose: 2.5 mg/kg/injection, schedule: Q01DX015 (ip), vehicle: water) 96 % of control; (dose: 5.0 mg/kg/injection, schedule: Q01DX015 (ip), vehicle: water) 105 % of control; (dose: 7.5 mg/kg/injection, schedule: Q01DX015 (ip), vehicle: water) 152 % of control; (dose: 10.0 mg/kg/injection, schedule: Q01DX015 (ip), vehicle: water) 102 % of control; (dose: 12.5 mg/kg/injection, schedule: Q01DX001 (ip), vehicle: water) 105 % of control. The T/C was 115 % of control (dose: 13.3 mg/kg/injection, schedule: Q01DX Z (ip), vehicle: saline); 106 % of control (dose: 15.0 mg/kg/injection, schedule: Q01DX015 (ip), vehicle: water); 121 % of control (dose: 20.0 mg/kg/injection, schedule: Q01DX Z (ip), vehicle: saline); 103 % of control (dose: 25.0 mg/kg/injection, schedule: Q01DX001 (ip), vehicle: water); 121 % of control (dose: 30.0 mg/kg/injection, schedule: Q01DX015 (ip), vehicle: water); 100 % of control (dose: 50.0 mg/kg/injection, schedule: Q01DX001 (ip), vehicle: water). The T/C runs as follows: (dose: 60.0 mg/kg/injection, schedule: Q01DX Z (oral), vehicle: carboxymethylcellulose (CMC)) 105 % of control; (dose: 75.0 mg/kg/injection, schedule: Q01DX001 (ip), vehicle: water) 115 % of control; (dose: 120.0 mg/kg/injection, schedule: Q01DX Z (oral), vehicle: carboxymethylcellulose (CMC)) 109 % of control; (dose: 240.0 mg/kg/injection, schedule: Q01DX Z (oral), vehicle: carboxymethylcellulose (CMC)) 96 % of control; (dose: 480.0 mg/kg/injection, schedule: Q01DX Z (oral), vehicle: carboxymethylcellulose (CMC)) 100 % of control.

Take `CCOC(=O)C(=CNc1ccccc1)C(=O)OCC`: the T/C was 97 % of control under setting [1], 90 % of control under setting [2] and 97 % of control under setting [3].
